Source: article PMC8414802, “Hair Cell Generation in Cochlear Culture Models Mediated by Novel γ-Secretase Inhibitors” (Frontiers in Cell and Developmental Biology, 2021)

System: Myo7a+ hair cells in rat cochlear organoids
Test: Rat cochlear organoids, hair cell differentiation
Type: cell-based
Conditions: for Total hair cells per organoid prior to normalization: end of differentiation, GSI 5 μM
Method: On day 0, the cochlear sensory epithelium was dissected and the OC was separated from the modiolus and stria vascularis, as described above, from either Wistar rat pups (P2), Lgr5-GFP mice (P0–P2) or Atoh1-GFP mice (P0–P2). To separate the sensory epithelial layer from underlying mesenchyme and neurons, the OC was placed in a 100 μl drop of Matrisperse Cell Recovery Solution (Corning) for 1 h at RT, then delaminated with the aid of forceps. Gentle enzymatic dissociation of hair cells and supporting cells followed with 100 μl drop of TrypLE (Gibco), 20 min at 37°C, then mechanical trituration in DMEM/F12. The cell suspension was centrifuged for 5 min at 500 g at 4°C and resuspended in DMEM/F12 medium supplemented with B27 and N2 (Invitrogen), EGF (50 ng/ml), bFGF (50 ng/ml), IGF (25 ng/ml), CHIR99021 (GSK-3β inhibitor, 3 μM, Merck), valproic acid (HDAC inhibitor, 1 mM, Sigma), 2-phospho-L-ascorbic acid (280 μM, Stemcell Technologies) and 0.01% ampicillin (Sigma). Cells were plated at 2,000 cells per well on 96 wells plate (Corning Costar; ultra-low attachment, round-bottom) to allow aggregation at 37°C. On day 1, Matrigel (GF-depleted, Corning; 2% stock) was added to a final concentration of 0.18 mg/ml. On day 3, cells were transferred to 24 wells plate (ultra-low attachment; Corning Costar), pooling the organoid aggregates from 4 to 5 wells (96 well-plate) to one 24-well, culturing at 37°C and exchanging half medium and Matrigel every other day, On day 10, organoids were differentiated by replacing medium with DMEM/F12 supplemented with B27, N2, CHIR99021 (3 μM), and Notch inhibitors CPD3 (5 μM) or LY411575 (5 μM), and culture was continued as above for another 10 days.
For staining and imaging, organoids were allowed to adhere ON onto transwell-permeable support membranes (Corning) in 12-well plates coated with 100% Matrigel. […] Compiled Z-projections were processed (FIJI, ver2.0) and hair cells quantified on individual planes with manual cell counter plugin, by evaluation of cytosolic expression and nuclear exclusion of Myo7a. […]

SMILES: COc1ccc2c(c1)N1CCC(C)(C)C1=CC(=O)[C@H]2NC(=O)[C@H](C)NC(=O)CCC(F)(F)F [CPD3]
- Hair cell numbers during differentiation (diff D20 vs exp D10, p < 0.05): significantly increased
- Total hair cells per organoid prior to normalization: 22.8 ± 18.0

SMILES: C[C@H](NC(=O)[C@@H](O)c1cc(F)cc(F)c1)C(=O)N[C@@H]1C(=O)N(C)c2ccccc2-c2ccccc21 [LY411575]
- Total hair cells per organoid prior to normalization: 17.17 ± 20.9
